Test results: patent publication US5496947A, “Quinolone carboxylic acid derivatives” (Dong Wha Pharmaceutical Industrial Co., Ltd., priority 1994, dated 1996)
Like-named read-outs stand apart in the source and are kept apart here.

Columns and labels:
[1] = tested on: Streptococcus faecalis ATCC 19433; experiment: MIC, 2-fold dilution method in micro-well plate, S. faecalis ATCC 19433; assay type: cell-based; conditions: Enterococcus faecalis; S. faecalis ATCC19433, 37° C.; read-out: Minimum Inhibitory Concentration
In short: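 Bacteria grown overnight in brain-heart infusion broth at 37 °C, then mixed with two-fold serial aqueous dilutions of hydrochloride salts in micro-wells at roughly (10^5-10^6)/2 cfu/ml. Lowest inhibitory concentration recorded after 37 °C culture.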

LD50, oral, mice = conditions: mouse, in vivo
[2] = tested on: Streptococcus pneumoniae ATCC 6303; experiment: MIC, 2-fold dilution method in micro-well plate, S. pneumoniae; assay type: cell-based; conditions: S. pneuinoniae ATCC6303, 37° C., read-out: Minimum Inhibitory Concentration
In short: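 Inoculum of about (10^5–10^6)/2 cfu/ml came from an overnight brain-heart infusion culture at 37° C. Compounds, tested as hydrochloride salts dissolved in sterile water, were two-fold serially diluted in micro-well plates. The lowest concentration inhibiting growth after 37° C incubation was taken as MIC.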

[3] = tested on: Streptococcus faecalis ATCC 29212; experiment: MIC, 2-fold dilution method in micro-well plate, S. faecalis ATCC 29212; assay type: cell-based; conditions: Enterococcus faecalis; S. faecalis ATCC29212, 37° C.; read-out: Minimum Inhibitory Concentration
In short: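 MIC was read after incubation at 37° C in micro-well plates. Bacteria were grown overnight in BHI broth and added to give about (10^5-10^6)/2 cfu/ml per well. The hydrochloride-salt compounds were serially diluted two-fold in sterile water.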

[4] = tested on: Shigella sonnei ATCC 25931; experiment: MIC, 2-fold dilution method in micro-well plate, S. sonnei; assay type: cell-based; conditions: S. sonnei ATCC25931, 37° C., read-out: Minimum Inhibitory Concentration
In short: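 Compounds, converted to hydrochloride salts, were serially diluted two-fold in micro-wells and mixed with an equal volume of bacteria grown overnight in BHI broth at 37° C (final about (10^5-10^6)/2 cfu/ml). Following culture at 37° C, the minimum inhibitory concentration was recorded.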

[5] = tested on: Proteus vulgaris ATCC 13315; experiment: MIC, 2-fold dilution method in micro-well plate, P. vulgaris; assay type: cell-based
In short: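 MIC recorded after 37 °C cultivation of compound hydrochloride salts in serial 2-fold aqueous dilutions, mixed equally with overnight BHI culture (about 10^5 cfu/ml inoculum). Micro-well plate format.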

Enterobacter cloacae = experiment: MIC, 2-fold dilution method in micro-well plate, E. cloacae; assay type: cell-based; conditions: E. cloacae ATCC23355 (as in tables), 37° C., read-out: Minimum Inhibitory Concentration
[6] = Pharmacokinetic properties in ICR mouse, oral and subcutaneous, Bio-Assay (Agar well method); assay type: in vivo; conditions: 40 mg/kg, average of four tests; for AUC / Cmax / Tmax / bioavailability / half-life: blood; for dose excreted: urine, read-out: Urine Recovery
Experimental: The pharmacokinetic properties are tested by orally administrating and subcutaneously injecting a test compound and a substance for control to a ICR Mouse with 22 g±10% weight, drawing blood after 10, 20, 30, 45, 60, 90, 120, 150, 180 and […] and analyzed by Bio-Assay (Agar well method).

[7] = tested on: Shigella flexneri ATCC 12022; experiment: MIC, 2-fold dilution method in micro-well plate, S. flexneri; assay type: cell-based; conditions: S. flexneri ATCC12022, 37° C., read-out: Minimum Inhibitory Concentration
In short: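 Test compounds, converted to hydrochloride salts and dissolved in sterile water, were serially diluted two-fold in micro-well plates. Wells received bacteria grown overnight in brain-heart infusion broth at 37 °C, about (10^5–10^6)/2 cfu/ml final. Minimum inhibitory concentration determined following incubation at 37 °C.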

[8] = tested on: Enterobacter aerogenes ATCC 13048; experiment: MIC, 2-fold dilution method in micro-well plate, E. aerogenes; assay type: cell-based; conditions: Klebsiella aerogenes, ATCC13048, read-out: Minimum Inhibitory Concentration
In short: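 MIC read after growth at 37° C in micro-well plates, with E. aerogenes at roughly (10^5–10^6)/2 cfu/ml per well, grown overnight in brain-heart infusion broth. Compounds tested as hydrochlorides, serially diluted two-fold in water from a 10 mg/ml stock.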

[9] = tested on: Klebsiella pneumoniae ATCC 13883; experiment: MIC, 2-fold dilution method in micro-well plate, K. pneumoniae; assay type: cell-based; conditions: ATCC13883, read-out: Minimum Inhibitory Concentration
In short: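 MIC determined after 37 °C incubation of wells inoculated with overnight BHI-grown bacteria at about (10^5–10^6)/2 cfu/ml final. Compound tested as hydrochloride salt, dissolved in sterile water and diluted two-fold serially.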

[10] = tested on: Citrobacter freundii ATCC 8090; experiment: MIC, 2-fold dilution method in micro-well plate, C. freundii; assay type: cell-based
In short: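 MIC recorded after 37° C. culture of wells inoculated at roughly (10^5-10^6)/2 cfu/ml, bacteria pre-grown overnight in BHI broth. Compounds, converted to hydrochloride salts and dissolved in sterile distilled water, serially diluted two-fold in micro-well plates.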

[11] = tested on: Pseudomonas aeruginosa ATCC 27853; experiment: MIC, 2-fold dilution method in micro-well plate, P. aeruginosa; assay type: cell-based; conditions: P. aerugirnosa ATCC27853, 37° C., read-out: Minimum Inhibitory Concentration
In short: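 MIC was recorded after 37° C incubation of bacteria with serial two-fold dilutions of compound. Bacteria came from an overnight 37° C BHI culture; the final inoculum was about (10^5-10^6)/2 cfu/ml. Compounds were tested as hydrochloride salts diluted in sterile water from a 10 mg/ml stock.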

[12] = tested on: Acinetobacter calcoaceticus; experiment: MIC, 2-fold dilution method in micro-well plate, A. calcoaceticus; assay type: cell-based; conditions: A. calcoaceticus ATCC8090 (as in tables), 37° C., read-out: Minimum Inhibitory Concentration
[13] = tested on: Salmonella typhimurium ATCC 14028; experiment: MIC, 2-fold dilution method in micro-well plate, S. typhimurium; assay type: cell-based; conditions: Salmonella enterica, read-out: Minimum Inhibitory Concentration
In short: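 Hydrochloride salts dissolved in sterile water (10 mg/ml stock) and serially diluted twofold in microplate wells, then inoculated to roughly (10^5-10^6)/2 cfu/ml from overnight BHI culture. MIC recorded after 37 °C cultivation.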

[14] = tested on: Escherichia coli ATCC 25922; experiment: MIC, 2-fold dilution method in micro-well plate, E. coli; assay type: cell-based
In short: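 Broth two-fold microdilution of hydrochloride salts in water against E. coli ATCC 25922 grown overnight in BHI at 37° C. Final inoculum about (10^5 -10^6)/2 cfu/ml; after incubation at 37° C, MIC was recorded.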

[15] = tested on: Streptococcus pyrogens ATCC 19615; experiment: MIC, 2-fold dilution method in micro-well plate, S. pyrogens; assay type: cell-based; conditions: S. pyrogenes ATCC19615, 37° C., read-out: Minimum Inhibitory Concentration
In short: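 Inoculum from overnight 37° C brain-heart infusion culture gave roughly (10^5-10^6)/2 cfu/mL per well against two-fold serial dilutions of hydrochloride-salt compound in water. Lowest concentration inhibiting growth after 37° C incubation taken as MIC.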

[16] = tested on: Haemophilus influenza ATCC 35056; experiment: MIC, 2-fold dilution method in micro-well plate, H. influenzae; assay type: cell-based; conditions: H. influenzae ATCC35056, 37° C.; read-out: Minimum Inhibitory Concentration
In short: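 Hydrochloride salts dissolved in water (10 mg/ml stock) and serially diluted two-fold in micro-wells, each mixed with equal volume of overnight BHI-grown bacteria to about (10^5-10^6)/2 cfu/ml. Minimum inhibitory concentration recorded after incubation at 37° C.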

[17] = tested on: Serratia marcescens ATCC 8100; experiment: MIC, 2-fold dilution method in micro-well plate, S. marcescens; assay type: cell-based; conditions: S. marcescens ATCC8100, 37° C., read-out: Minimum Inhibitory Concentration
In short: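 Bacteria grown overnight in BHI broth at 37 °C were added to wells of two-fold diluted compound (as HCl salt, aqueous) at about (10^5-10^6)/2 cfu/ml final. Lowest inhibitory concentration recorded after 37 °C incubation.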

SMILES: CN1CCN(c2nc3c(cc2F)c(=O)c(C(=O)O)cn3-c2ccc(F)cn2)CC1.Cl [Example 13, 1-(5-fluoro-2-pyridyl)-6-fluoro-7-(4-methyl-1-piperazinyl)-1,4-dihydro-4-oxo-1,8-naphthyridine-3-carboxylic acid hydrochloride]
- MIC [1]: 5 µg/mL
- LD50 (LD50, oral, mice): ~1000 mg/kg
- MIC [2]: 2.5 µg/mL
- MIC [3]: 5 µg/mL
- MIC [4]: 0.156 µg/mL
- MIC ([5]; ATCC13315, read-out: Minimum Inhibitory Concentration): 0.625 µg/mL
- MIC (Enterobacter cloacae): 0.313 µg/mL
- AUC ([6]; po, P.O): 41000 ng·h/mL
- Cmax ([6]; po, P.O): 11500 ng/mL
- Tmax ([6]; po, P.O): 1.12 h
- bioavailability ([6]; po, P.O): 74%
- half-life ([6]; po, P.O): 8.07 h
- AUC ([6]; sc, S.C): 55500 ng·h/mL
- Cmax ([6]; sc, S.C): 8000 ng/mL
- Tmax ([6]; sc, S.C): 0.81 h
- half-life ([6]; sc, S.C): 11.5 h
- dose excreted ([6]; po, P.O): 19.6%
- dose excreted ([6]; sc, S.C): 30.8%
- MIC [7]: 0.156 µg/mL
- MIC [8]: 0.625 µg/mL
- MIC [9]: 0.625 µg/mL
- MIC ([10]; ATCC8090, read-out: Minimum Inhibitory Concentration): 0.156 µg/mL
- MIC [11]: 1.25 µg/mL
- MIC [12]: 0.313 µg/mL
- MIC ([13]; S. typhisurium ATCC14028, 37° C.): 0.313 µg/mL
- MIC ([14]; ATCC25922, read-out: Minimum Inhibitory Concentration): 0.156 µg/mL
- MIC [15]: 5 µg/mL
- MIC [16]: 0.625 µg/mL
- MIC [17]: 0.313 µg/mL

SMILES: CC1CN(c2nc3c(cc2F)c(=O)c(C(=O)O)cn3-c2ccc(F)cn2)CCN1.Cl (stereo not drawn) [Example 14, 1-(5-fluoro-2-pyridyl)-6-fluoro-7-(3-methyl-1-piperazinyl)-1,4-dihydro-4-oxo-1,8-naphthyridine-3-carboxylic acid hydrochloride]
- MIC [1]: 5 µg/mL
- MIC [2]: 5 µg/mL
- MIC [3]: 2.5 µg/mL
- MIC [4]: 0.078 µg/mL
- MIC ([5]; P. vulgaris ATCC13315, 37° C., read-out: Minimum Inhibitory Concentration): 0.625 µg/mL
- MIC (Enterobacter cloacae): 0.625 µg/mL
- AUC ([6]; po, P.O): 12500 ng·h/mL
- Cmax ([6]; po, P.O): 2120 ng/mL
- Tmax ([6]; po, P.O): 0.87 h
- bioavailability ([6]; po, P.O): 44%
- half-life ([6]; po, P.O): 3.81 h
- AUC ([6]; sc, S.C): 28100 ng·h/mL
- Cmax ([6]; sc, S.C): 4280 ng/mL
- Tmax ([6]; sc, S.C): 0.6 h
- half-life ([6]; sc, S.C): 7.28 h
- dose excreted ([6]; po, P.O): 58.9%
- dose excreted ([6]; sc, S.C): 21.1%
- MIC [7]: 0.156 µg/mL
- MIC [8]: 1.25 µg/mL
- MIC [9]: 1.25 µg/mL
- MIC ([10]; C. freundii ATCC8090, 37° C., read-out: Minimum Inhibitory Concentration): 0.625 µg/mL
- MIC [11]: 1.25 µg/mL
- MIC [12]: 0.625 µg/mL
- MIC [13]: 1.25 µg/mL
- MIC ([14]; E. coli ATCC25922, 37° C., read-out: Minimum Inhibitory Concentration): 0.313 µg/mL
- MIC [15]: 10 µg/mL
- MIC [16]: 1.25 µg/mL
- MIC [17]: 0.313 µg/mL
